Legend:
Assay in all cases: Biomarker study proliferation (CellTiter-Glo)
Format in all cases: cell-based
T84 = tested on: T84
Procedure, shortened: (§1)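 Profiling across cell lines annotated for ARID1A, KMT2C, KMT2D or RB1 alterations used CellTiter-Glo viability after 7 days' treatment. Responses were classed insensitive, cytostatic or cytotoxic using IC50 1 μM and 70% inhibition cut-offs.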

TYKNU = tested on: TYKNU
Procedure, shortened: as §1

TGW = tested on: TGW
Procedure, shortened: as §1

[1] = 168 h, read-out: Anti-proliferation effect IC50

SMILES: Cc1cc(NC2CCN(C(=O)O[C@H]3CCN(C(=O)/C=C/CN(C)C)C3)CC2)n2ncc(C(C)C)c2n1 [Example 1, [(3S)-1-[(E)-4-(dimethylamino)but-2-enoyl]pyrrolidin-3-yl] 4-[(3-isopropyl-5-methyl-pyrazolo[1,5-a]pyrimidin-7-yl)amino]piperidine-1-carboxylate]
- IC50 (T84; Homo sapiens, T84, 168 h, read-out: Anti-proliferation effect IC50): 308 nM
- Anti-proliferation effect % Inh. (T84; T84, INTESTINE, 7 days): 61%
- Anti-proliferation effect Outcome (T84; T84, INTESTINE, 7 days): Cytostatic (cytostatic (IC50<1 μM and % inhibition <70%))
- IC50 (TYKNU; [1]): 72 nM
- Anti-proliferation effect % Inh. (TYKNU; TYKNU, OVARY, 7 days): 83%
- Anti-proliferation effect Outcome (TYKNU; TYKNU, OVARY, 7 days): Cytotoxic (cytotoxic (IC50<1 μM and % inhibition ≥70%))
- IC50 (TGW; [1]): 70 nM
- Anti-proliferation effect % Inh. (TGW; TGW, BRAIN, 7 days): 63%
- Anti-proliferation effect Outcome (TGW; TGW, BRAIN, 7 days): Cytostatic (cytostatic (IC50<1 μM and % inhibition <70%))
